Values quoted from earlier work as cited in patent US6022703A, “Expression of DNA sequences derived from nocardioform microorganisms” (Genzyme Corporation, priority 1993, dated 2000).

System: Nocardioform cholesterol oxidase
Settings: at 25°

Km: 14 µM
Compound: CC(C)CCC[C@@H](C)[C@H]1CC[C@H]2[C@@H]3CC=C4C[C@@H](O)CC[C@]4(C)[C@H]3CC[C@]12C [cholesterol]
